# Earlier results as cited in patent US20080171795A1, “Novel Inter and Intra Multilamellar Vesicular Composition” (LIFE-CARE INNOVATIONS PVT. LTD., priority 2005, published 2008).
# Where two headings read alike, the source gives them in different places.
# How the values were obtained:
# [1] = topical, skin with impaired stratum corneum barrier
# psoriasis = conditions: compared with dithranol
"Solubility (in alcohol, ether, glacial acetic acid)",Solubility (in water),"Solubility (in water, listed as dithranol)",Time to penetrate into the skin [1],SMILES,Solubility (in acetone),Solubility (in dilute solution of alkali hydroxides),"Solubility (in methylene chloride, chloroform)",Efficacy (psoriasis),Irritancy and staining (psoriasis)
slightly soluble,Practically insoluble,insoluble in water,30 min,"O=C1c2c(O)cccc2Cc2cccc(O)c21 [Dithranol, 1,8-dihydroxyanthrone]","alcohol, ether, glacial acetic acid, sparingly",chloroform. dissolves in dilute solution of alkali,"soluble in acetone, soluble in methylene chloride,",,
,,,,"CCCC(=O)C1c2cccc(O)c2C(=O)c2c(O)cccc21 [butantrone, 10-butyryldithranol]",,,,compromised,reduced irritancy and staining
,,,,CC(=O)Oc1cccc2cc3cccc(OC(C)=O)c3c(OC(C)=O)c12 [triacetyldithranol],,,,compromised,reduced irritancy and staining
